From publication PMC4329833 (Journal of Medicinal Chemistry, 2014)
Each block holds one molecule with its values, some of them ahead of it.

What was measured:
[1] = molecular target: CYP2D6 (Homo sapiens, UniProt P10635); test: CYP inhibition assay in human liver microsomes; format: in vitro ADME; conditions: 10 μM
[2] = molecular target: CYP2C19 (Homo sapiens, UniProt P33261); test: CYP inhibition assay in human liver microsomes; format: in vitro ADME; conditions: 10 μM
[3] = molecular target: T1, serotonin 5-HT1A (Homo sapiens, UniProt P08908); test: NIMH PDSP CNS receptor radioligand binding
T1 sequence (P08908 1-422): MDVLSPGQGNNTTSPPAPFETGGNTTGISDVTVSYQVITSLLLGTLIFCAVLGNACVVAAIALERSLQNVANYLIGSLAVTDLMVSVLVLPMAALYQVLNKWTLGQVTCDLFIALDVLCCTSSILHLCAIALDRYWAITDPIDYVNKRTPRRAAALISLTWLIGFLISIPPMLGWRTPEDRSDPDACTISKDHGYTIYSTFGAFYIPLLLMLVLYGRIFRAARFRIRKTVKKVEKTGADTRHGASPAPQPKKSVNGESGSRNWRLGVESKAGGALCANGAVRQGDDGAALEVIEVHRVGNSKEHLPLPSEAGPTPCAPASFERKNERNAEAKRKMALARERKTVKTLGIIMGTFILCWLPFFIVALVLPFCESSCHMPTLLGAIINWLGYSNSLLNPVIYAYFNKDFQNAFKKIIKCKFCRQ

[4] = molecular target: CYP3A4 (Homo sapiens, UniProt P08684); test: CYP inhibition assay in human liver microsomes; format: in vitro ADME; conditions: 10 μM
Sequence of CYP3A4 (P08684 whole entry): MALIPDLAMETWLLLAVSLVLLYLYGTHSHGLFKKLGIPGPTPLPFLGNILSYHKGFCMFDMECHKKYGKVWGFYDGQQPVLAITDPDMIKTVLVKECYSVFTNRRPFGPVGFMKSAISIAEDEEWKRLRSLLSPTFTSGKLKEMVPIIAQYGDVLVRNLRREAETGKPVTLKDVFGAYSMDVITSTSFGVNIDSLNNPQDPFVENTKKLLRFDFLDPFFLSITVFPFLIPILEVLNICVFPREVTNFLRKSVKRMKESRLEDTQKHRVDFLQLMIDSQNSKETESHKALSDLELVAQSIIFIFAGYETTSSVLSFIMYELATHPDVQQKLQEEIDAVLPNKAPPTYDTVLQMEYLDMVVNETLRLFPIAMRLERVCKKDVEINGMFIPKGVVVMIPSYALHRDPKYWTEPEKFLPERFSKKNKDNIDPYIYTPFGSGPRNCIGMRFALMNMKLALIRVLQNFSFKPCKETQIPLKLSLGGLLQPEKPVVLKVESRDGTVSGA

[5] = molecular target: dopamine D3 receptor (Homo sapiens, UniProt P35462); test: NIMH PDSP CNS receptor radioligand binding
Sequence of dopamine D3 receptor (P35462 whole entry, species assumed): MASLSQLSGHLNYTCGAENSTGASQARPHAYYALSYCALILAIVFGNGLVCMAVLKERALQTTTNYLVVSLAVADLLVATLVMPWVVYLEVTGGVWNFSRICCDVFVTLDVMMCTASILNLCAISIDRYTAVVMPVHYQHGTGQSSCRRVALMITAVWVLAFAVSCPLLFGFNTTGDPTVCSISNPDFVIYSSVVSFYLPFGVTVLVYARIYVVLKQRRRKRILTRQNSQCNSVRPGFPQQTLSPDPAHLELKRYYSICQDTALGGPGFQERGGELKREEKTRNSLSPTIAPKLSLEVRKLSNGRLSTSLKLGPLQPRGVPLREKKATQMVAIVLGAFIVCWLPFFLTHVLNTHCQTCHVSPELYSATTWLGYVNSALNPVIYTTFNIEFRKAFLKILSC

[6] = molecular target: serotonin 5-HT2A (Homo sapiens, UniProt P28223); test: NIMH PDSP CNS receptor radioligand binding
Sequence of serotonin 5-HT2A (P28223 whole entry): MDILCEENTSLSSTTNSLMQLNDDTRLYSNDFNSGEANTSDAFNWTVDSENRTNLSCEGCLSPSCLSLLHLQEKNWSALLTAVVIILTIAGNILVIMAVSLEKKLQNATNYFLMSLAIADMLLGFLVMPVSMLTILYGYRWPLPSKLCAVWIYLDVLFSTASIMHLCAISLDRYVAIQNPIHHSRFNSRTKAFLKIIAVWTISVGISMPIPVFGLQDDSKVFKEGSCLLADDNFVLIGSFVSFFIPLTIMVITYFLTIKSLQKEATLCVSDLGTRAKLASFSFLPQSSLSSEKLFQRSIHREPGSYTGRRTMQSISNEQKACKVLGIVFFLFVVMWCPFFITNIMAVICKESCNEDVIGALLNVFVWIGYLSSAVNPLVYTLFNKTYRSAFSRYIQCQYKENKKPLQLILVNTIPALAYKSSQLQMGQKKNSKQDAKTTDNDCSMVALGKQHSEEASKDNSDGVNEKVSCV

[7] = molecular target: T2, rat nNOS (Rattus norvegicus, UniProt P29476); test: biochemical
T2 sequence (P29476 whole entry): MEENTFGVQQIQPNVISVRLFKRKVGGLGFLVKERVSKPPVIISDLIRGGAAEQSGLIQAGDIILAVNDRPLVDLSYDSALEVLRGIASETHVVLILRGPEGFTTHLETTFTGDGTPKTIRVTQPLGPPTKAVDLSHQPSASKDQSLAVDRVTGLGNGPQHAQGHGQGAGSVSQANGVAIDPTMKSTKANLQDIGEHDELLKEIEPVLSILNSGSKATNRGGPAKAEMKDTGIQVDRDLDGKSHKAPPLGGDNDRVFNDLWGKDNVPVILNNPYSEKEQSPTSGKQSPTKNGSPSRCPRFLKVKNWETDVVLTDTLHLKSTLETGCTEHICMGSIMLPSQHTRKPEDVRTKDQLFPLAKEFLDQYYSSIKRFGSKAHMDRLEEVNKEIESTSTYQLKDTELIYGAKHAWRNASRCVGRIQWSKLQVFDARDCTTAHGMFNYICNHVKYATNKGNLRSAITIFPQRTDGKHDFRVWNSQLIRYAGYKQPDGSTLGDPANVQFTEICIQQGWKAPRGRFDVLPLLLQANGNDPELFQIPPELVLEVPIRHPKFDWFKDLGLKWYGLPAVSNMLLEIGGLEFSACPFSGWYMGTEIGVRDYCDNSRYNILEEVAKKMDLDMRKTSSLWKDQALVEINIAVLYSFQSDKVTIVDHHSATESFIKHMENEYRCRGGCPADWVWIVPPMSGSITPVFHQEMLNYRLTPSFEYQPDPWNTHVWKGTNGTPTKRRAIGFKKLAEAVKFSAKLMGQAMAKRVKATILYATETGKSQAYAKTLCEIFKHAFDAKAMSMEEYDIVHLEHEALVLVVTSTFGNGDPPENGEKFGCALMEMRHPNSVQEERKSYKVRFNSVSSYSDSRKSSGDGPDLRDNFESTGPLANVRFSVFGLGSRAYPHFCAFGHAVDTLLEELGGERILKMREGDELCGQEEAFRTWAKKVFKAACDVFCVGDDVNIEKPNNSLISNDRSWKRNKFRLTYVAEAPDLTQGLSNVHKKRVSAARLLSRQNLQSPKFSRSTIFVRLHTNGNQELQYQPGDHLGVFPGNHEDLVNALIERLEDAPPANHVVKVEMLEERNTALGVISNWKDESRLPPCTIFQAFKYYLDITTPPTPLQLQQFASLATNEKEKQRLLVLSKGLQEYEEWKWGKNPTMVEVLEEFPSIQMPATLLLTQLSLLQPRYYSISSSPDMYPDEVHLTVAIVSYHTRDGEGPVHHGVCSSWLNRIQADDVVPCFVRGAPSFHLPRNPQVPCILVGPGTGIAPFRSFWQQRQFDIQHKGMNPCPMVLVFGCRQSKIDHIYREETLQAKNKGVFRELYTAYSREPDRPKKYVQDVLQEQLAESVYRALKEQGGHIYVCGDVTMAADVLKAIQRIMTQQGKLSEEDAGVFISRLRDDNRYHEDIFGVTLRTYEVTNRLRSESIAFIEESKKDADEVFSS

[8] = cited from earlier work
[9] = molecular target: T2, rat nNOS; conditions: ratio of respective Ki values (eNOS vs rnNOS)

Sequence of CYP2D6 (P10635 whole entry): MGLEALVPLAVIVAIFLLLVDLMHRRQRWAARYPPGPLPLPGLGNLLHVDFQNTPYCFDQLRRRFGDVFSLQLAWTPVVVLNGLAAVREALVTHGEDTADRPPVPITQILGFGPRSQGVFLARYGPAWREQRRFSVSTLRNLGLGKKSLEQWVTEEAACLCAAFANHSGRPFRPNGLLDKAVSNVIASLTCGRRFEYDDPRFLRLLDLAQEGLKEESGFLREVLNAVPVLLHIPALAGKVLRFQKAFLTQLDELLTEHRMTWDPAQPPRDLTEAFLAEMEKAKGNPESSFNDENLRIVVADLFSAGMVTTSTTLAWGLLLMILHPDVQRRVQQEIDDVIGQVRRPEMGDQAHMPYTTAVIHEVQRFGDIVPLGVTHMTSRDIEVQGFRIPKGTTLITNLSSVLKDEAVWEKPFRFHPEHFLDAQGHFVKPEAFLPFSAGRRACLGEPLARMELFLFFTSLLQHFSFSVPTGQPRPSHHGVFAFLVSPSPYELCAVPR
Sequence of CYP2C19 (P33261 whole entry): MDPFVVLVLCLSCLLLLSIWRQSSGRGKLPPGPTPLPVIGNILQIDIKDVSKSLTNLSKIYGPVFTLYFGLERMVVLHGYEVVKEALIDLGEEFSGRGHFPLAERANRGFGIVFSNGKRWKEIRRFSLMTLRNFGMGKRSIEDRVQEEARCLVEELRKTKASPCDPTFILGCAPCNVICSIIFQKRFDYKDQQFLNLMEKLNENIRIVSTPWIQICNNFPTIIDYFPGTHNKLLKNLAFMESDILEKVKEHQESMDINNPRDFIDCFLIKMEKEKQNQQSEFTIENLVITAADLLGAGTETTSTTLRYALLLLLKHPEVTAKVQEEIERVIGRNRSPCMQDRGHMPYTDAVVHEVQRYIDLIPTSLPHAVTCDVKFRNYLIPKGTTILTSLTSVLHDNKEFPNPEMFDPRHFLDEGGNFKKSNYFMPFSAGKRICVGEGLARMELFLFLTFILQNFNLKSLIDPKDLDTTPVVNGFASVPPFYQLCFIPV

- decrease of CYP2D6 activity [1]: more than 70%
- decrease of CYP2C19 activity [2]: more than 70%
- Ki [3]: ≥ 500 nM
- decrease of CYP3A4 activity [4]: more than 70%
- Ki [5]: ≥ 500 nM
- Ki [6]: ≥ 500 nM
SMILES: Cl.Fc1cccc(CCCNCCc2ccnc(-n3ccnc3)n2)c1 [Compound 9, N-2-[2-(1H-Imidazol-1-yl)pyrimidin-4-yl]ethyl-3-(3-fluorophenyl)propan-1-amine Dihydrochloride]

SMILES: Fc1cccc(CCN2CCN(c3ccnc(-n4ccnc4)n3)CC2)c1 [Compound 4, 4-[4-(3-Fluorophenethyl)-1-piperazyl]-2-(1H-imidazol-1-yl)pyrimidine]
- Ki [7]: ~5 µM

SMILES: c1c[nH]cn1 [imidazole]
- pKa of conjugate acid [8]: 6.9

SMILES: Cl.Fc1cccc(CCNCCNc2ccnc(-n3ccnc3)n2)c1 [Compound 5, N^1-[2-(1H-Imidazol-1-yl)pyrimidin-4-yl]-N^2-(3-fluorophenethyl)ethane-1,2-diamine Trihydrochloride]
- selectivity n/e [9]: 100
